± gives the expanded uncertainty stated by the source.
Assay: osmotic coefficient (dimensionless); mn = molality of the nth substance listed, in mol/kg
Conditions: 298.15 K, 100 kPa, Liquid, isopiestic method

| SMILES | osmotic coefficient (m1 = 0.6482) | osmotic coefficient (m1 = 1.344) | osmotic coefficient (m1 = 1.706) | osmotic coefficient (m1 = 1.869) | osmotic coefficient (m1 = 1.921) | osmotic coefficient (m1 = 2.034) | osmotic coefficient (m1 = 2.247) | osmotic coefficient (m1 = 1.014) | osmotic coefficient (m1 = 2.276) | osmotic coefficient (m1 = 2.931) | osmotic coefficient (m1 = 3.121) | osmotic coefficient (m1 = 3.201) | osmotic coefficient (m1 = 3.445) | osmotic coefficient (m1 = 3.639) |
| --- | --- | --- | --- | --- | --- | --- | --- | --- | --- | --- | --- | --- | --- | --- |
| CCCCn1cc[n+](C)c1.[Br-] [1-butyl-3-methylimidazolium bromide] + O | 0.771 ± 0.013 | 0.742 ± 0.014 | 0.734 ± 0.014 | 0.731 ± 0.014 | 0.726 ± 0.014 | 0.729 ± 0.014 | 0.719 ± 0.014 |  |  |  |  |  |  |  |
| N[C@@H](CO)C(=O)O [L-serine] + O |  |  |  |  |  |  |  | 0.986 ± 0.01 | 0.876 ± 0.011 | 0.855 ± 0.011 | 0.875 ± 0.011 | 0.872 ± 0.011 | 0.861 ± 0.011 | 0.889 ± 0.011 |

From the NIST ThermoML archive (doi:10.1016/j.jct.2014.11.014)
